In patent US9814714B2, “Kinase modulation, and indications therefor” (Plexxikon Inc., priority 2015, dated 2017):
Like-named read-outs stand apart in the source and are kept apart here.

How the values were obtained:
[1] = system: pERK in COLO829 cells (BRAF^V600E, heterozygous); assay: Phospho-ERK AlphaScreen assay, pERK inhibition in COLO829; assay type: cell-based; settings: Homo sapiens, COLO-829, 1 h, read-out: pERK inhibition IC50 COLO829
Description: (§1) Phospho-ERK AlphaScreen® assay: The degree of ERK phosphorylation was determined using an AlphaScreen® assay where an increase in ERK1/2 phosphorylation at Thr202/Tyr204 brought the donor and acceptor AlphaScreen® beads into close proximity, generating a signal for quantification. To determine the effects of compound treatment on phosphorylation of ERK1/2, cells were plated in a 96-well plate and treated with an 8-point titration of compound for one hour at 37° C. before lysis. To detect pERK, cell lysates were incubated with streptavidin-coated AlphaScreen® donor beads, anti-mouse IgG AlphaScreen® acceptor beads, a biotinylated anti-ERK1/2 rabbit antibody, and a mouse antibody that recognizes ERK1/2 only when it is phosphorylated on Thr202 and Tyr204. The biotinylated ERK1/2 antibody binds to both the streptavidin-coated AlphaScreen® donor beads and to ERK1/2 (regardless of its phosphorylation state), and the phospho-ERK1/2 antibody binds to the acceptor beads and to ERK1/2 that is phosphorylated at Thr202/Tyr204. An increase in ERK1/2 phosphorylation at Thr202/Tyr204 brings the donor and acceptor AlphaScreen® beads into close proximity, generating a signal that can be quantified on an EnVision reader (Perkin Elmer).
(§2) Using AlphaScreen® technology, the ability of Formula I to affect the phosphorylation of ERK and MEK in the cells was measured quantitatively. Following treatment with compound, the cells were lysed, and a sample of the lysate was transferred to an assay plate. The lysate was mixed with antibodies directed against total ERK/MEK, antibodies that recognize specific phosphorylation sites on ERK/MEK, AlphaScreen® anti-mouse IgG Acceptor beads, and Streptavidin Donor beads. Upon excitation of the donor beads with laser light at 680 nm, singlet oxygen was produced. This singlet oxygen was rapidly quenched, unless the AlphaScreen® Acceptor beads were in close proximity, in which case a proximity signal can be measured at 580 nm. In the presence of phosphorylated ERK/MEK, there is a very strong proximity signal.
(§3) 1. One day before the assay, 50,000 cells were plated in each well of a 96-well tissue-culture-treated plate (Corning #3610) in a 50 μL volume. Cells were incubated at 37° C. overnight.
(§4) 2. Compounds were diluted in DMSO to 500× final concentration. Each compound was plated as an 8-point titration, using 1:3 dilutions in DMSO. The maximum concentration was about 5 mM.
(§5) 3. 1 μl of compound was added to each well of a 96-well polypropylene plate (Corning #3363). For A375, COLO829, SK-MEL-3, HCT116, and HT-29, the high control was DMSO, and the low control was 10 μM PLX4720 (CAS No. 918505-84-7). For B9 and IPC-298, the high control was 3.33 μM PLX4720, and the low control was DMSO. 4. 249 μL growth media was added to compounds, diluting them 250-fold. 5. […] The compound was incubated with the cells at 37° C. for one hour. 6. The media was aspirated, and the cells were lysed in 50 μL of ice-cold 1× Cell Lysis buffer. The plates were incubated on ice for 5 minutes to allow complete lysis of the cells. 7. A mixture of biotinylated donor antibody, acceptor antibody, and anti-mouse IgG AlphaScreen® acceptor beads in 1× AlphaLISA immunoassay buffer was prepared. 8. 5 μL of lysate was transferred to a 384-well assay plate (Perkin Elmer #6005359). 5 μL of the antibody and acceptor bead mixture was added. The plates were spinned.

[2] = system: pERK in HCT116 cells (KRAS^G13D); assay: Phospho-ERK AlphaScreen assay, pERK activation in HCT116; assay type: cell-based; settings: Homo sapiens, HCT-116
Description: as §1, §2, §3, §4, §5

[3] = system: pERK in B9 cells (HRAS^Q61L); assay: Phospho-ERK AlphaScreen assay, pERK activation in B9; assay type: cell-based, murine; settings: Mus musculus
Description: as §1, §2, §3, §4, §5

[4] = system: pERK in A375 cells (BRAF^V600E, homozygous); assay: Phospho-ERK AlphaScreen assay, pERK inhibition in A375; assay type: cell-based; settings: Homo sapiens, A-375, 1 h, read-out: pERK inhibition IC50 A375
Description: as §1, §2, §3, §4, §5

[5] = system: COLO829 cells; assay: Growth inhibition assay (CellTiter-Glo), COLO829; assay type: cell-based; settings: Homo sapiens
Description: Growth inhibition assay: Cells were plated into a 96-well plate at a density of 3000 cells per well and allowed to adhere overnight. Compounds were dissolved in DMSO, diluted 3-fold to create an 8-point titration and added to cells. After a 72-hour incubation, cell viability was examined using CellTiter-Glo® (Promega).
In order to determine the effects of Formula I on proliferation, a growth assay was established using melanoma cells (A375 and COLO829) and colorectal carcinoma cells (COLO205, HT-29) which each express the BRAFV600E mutation. To show selectivity over wild-type BRAF, several BRAF wild-type cell lines (K562, NOMO-1, MV-4-11 and ML-2) were also examined in the growth assay. The growth assay implemented the Promega CellTiter-Glo Luminescent Cell viability assay, which gives a luminescent readout that is proportional to the amount of ATP present in a cell sample. As ATP levels directly correlate with the number of viable cells, the luminescent signal can be used to determine the potency of Formula I to block the proliferation of the cell lines of interest.
1. 3,000 cells were plated in each well for cell lines A375, COLO205, COLO829, HT-29, and SK-MEL-3. 25,000 cells were plated in each well for cell lines K562, ML-2, MV-4-11, and
NOMO-1 of a 96-well tissue-culture-treated plate (Corning #3610) in a 50 μL volume. Cells were incubated overnight at 37° C.
2. Each test compound was plated as an 8-point titration, using 1:3 dilutions in DMSO. The maximum concentration was about 5 mM. Dilute DMSO and test compound of Formula I 1:250 in growth media.
3. 50 μL of the diluted compound was transferred into 50 μL cells, for a 500-fold final compound dilution (maximum concentration is typically 10 μM and DMSO concentration is 0.2%). The cells were incubated with DMSO/compound for 3 days at 37° C. in 5% CO2.
4. Cell Titer-Glo Luminescent Assay Reagent was brought to room temperature and reconstituted as directed in the product manual. The cell cultures were also brought to room temperature for about 20-30 minutes. […] Luminescence was measured on a Tecan Safire plate reader. […]

[6] = HCT116, KRAS^G13D, concentration increasing pERK to 50% compared to positive control 10 μM PLX4720, read-out: pERK activation EC50 HCT116
[7] = read-out: pERK activation Mean EC50, HCT116
[8] = B9, HRAS^Q61L, concentration increasing pERK to 50% compared to positive control 10 μM PLX4720, read-out: pERK activation EC50 B9
[9] = read-out: pERK activation Mean EC50, B9
[10] = COLO829, BRAF^V600E heterozygous, one hour treatment
[11] = A375, BRAF^V600E homozygous, one hour treatment
[12] = COLO-829, 72-hour incubation, read-out: In vitro growth inhibition IC50, COLO829

Row | SMILES | IC50 [1] | EC50 [2, 6] | EC50 [2, 7] | EC50 [3, 8] | EC50 [3, 9] | IC50 [4] | IC50 ([5]; COLO-829, 72 h, Table 4, melanoma, BRAF V600E/WT, RAS WT, 3 days, read-out: Growth IC50 Colo829) | IC50 [1, 10] | IC50 [4, 11] | IC50 [5, 12]
1 | O=C(c1c(F)ccc(NS(=O)(=O)N2CC[C@@H](F)C2)c1F)c1c[nH]c2ncc(-c3cnc(C4CC4)nc3)cc12 [Formula I, (3R)—N-[3-[5-(2-cyclopropylpyrimidin-5-yl)-1H-pyrrolo[2,3-b]pyridine-3-carbonyl]-2,4-difluorophenyl]-3-fluoropyrrolidine-1-sulfonamide] | 18 nM | > 200000 nM | 10000 nM | > 200000 nM | ≥ 10000 nM | 16 nM | 100 nM |  |  | 
2 | CCN(C)S(=O)(=O)Nc1ccc(F)c(C(=O)c2c[nH]c3ncc(-c4cnc(C5CC5)nc4)cc23)c1F [Formula II, 5-(2-cyclopropylpyrimidin-5-yl)-3-[3-[[ethyl(methyl)sulfamoyl]amino]-2,6-difluoro-benzoyl]-1H-pyrrolo[2,3-b]pyridine] |  | > 200000 nM |  | > 200000 nM |  |  |  | 2.1 nM | 3.5 nM | 530 nM
3 | CCCS(=O)(=O)Nc1ccc(F)c(C(=O)c2c[nH]c3ncc(-c4ccc(Cl)cc4)cc23)c1F [Vemurafenib, vemurafenib, reference compound] |  | 340 nM | 286 nM | 360 nM | 560 nM |  |  | 41 nM | 32 nM | 690 nM
